What was measured:
[1] = tested on: Timothy syndrome cardiomyocytes; assay: Analysis of cardiomyocyte contractions, Timothy syndrome cardiomyocytes; type: cell-based, human; details: for contraction irregularity / spontaneous beating rate: 5 μM, 2 hours; for contraction irregularity, long-term repeated treatment / spontaneous beating rate, long-term repeated treatment: 10 μM twice a day for seven days; for rhythmic contraction and cell survival: 10 μM, 7 days, vs untreated control group at day 27; for effects on Timothy syndrome cardiomyocytes: contraction irregularity and beating rate
Description: […] The contraction analysis was performed as reported previously (Yazawa et al., 2011). The movies were taken before the treatment, and 2 hours after the treatment of each compound on the intact monolayer Timothy syndrome cardiomyocytes. The contraction rate and the irregularity value of each sample before and after treatment were compared using paired Student t-test.

control cardiomyocytes [2] = assay: Analysis of cardiomyocyte contractions, healthy control cardiomyocytes; type: cell-based, human; details: 5 μM, 2 hours
[3] = tested on: Timothy syndrome cardiomyocytes; assay: Calcium imaging (FluoForte) of spontaneous calcium transients in Timothy syndrome cardiomyocytes; type: cell-based, human; details: 5 μM, 30 min
Description: (§1) The Nikon automatic microscope (Nikon Eclipse TiE with a motorized stage) connected to sCMOS camera (Andor Zyla sCMOS 4.2 MP) together with a stage top incubator (at 37° C., 5% CO2 and 20% O2, controlled by TOKAI HIT Hypoxia gas delivery system) were used for this experiment. Nikon objective lens 40× (Nikon CFI Plan Apo Lambda, NA 0.95) was used for single cell recordings and the cardiomyocyte culture media was used as bath solution. The cells were loaded with FluoForte calcium dye for calcium imaging following the manufacturer's instruction (ENZ-51016, Enzo Life Sciences). […] Thirty minutes after the treatment of Fluvoxamine or PRE-084, a second recording was acquired from the same cell. The calcium transient duration and the calcium transient half (50%) decay time from the recordings before and after treatment were analyzed. Paired student's t-test was used for statistics.

[4] = tested on: Timothy syndrome cardiomyocytes; assay: Current-clamp action potential recordings in Timothy syndrome cardiomyocytes; type: cell-based, human; details: 2 hr; for paced action potential duration: paced 0.2 Hz
Description: The Timothy syndrome and control iPSCs were differentiated into cardiomyocytes following a protocol reported previously (Song et al., 2015). The cardiomyocytes were dissociated into single cells for whole-cell patch-clamp recordings at day 31 and used for patch clamping between day 35 and 45. Whole-cell patch-clamp recordings of iPSC-derived cardiomyocytes were conducted using a MultiClap 700B patch-clamp amplifier (Molecular Devices) and an inverted microscope equipped with differential interface optics (Nikon, Ti-U). The glass pipettes were prepared using borosilicate glass (Sutter Instrument, BF150-110-10) using a micropipette puller (Sutter Instrument, Model P-97). Voltage-clamp measurements were conducted using an extracellular solution consisting of 5 mM BaCl2, 160 mM TEA and 10 mM HEPES (pH7.4 at 25° C.) and a pipette solution of 125 mM CsCl, 0.1 mM CaCl2, 10 mM EGTA, 1 mM MgCl2, 4 mM MgATP and 10 mM HEPES (pH 7.4 with CsOH at 25° C.). The protocol for voltage-clamp recordings was that cells were held at −90 mV and then depolarized to −10 mV for 400 ms at a rate of 0.1 Hz for the Ba^2+ current recordings; cells were held at −90 mV, stimulated with a 2-s family of pulses from −90 to +20 for the current-voltage relationship of the Ba^2+ currents. The recordings were conducted under room temperature. […] The recordings were conducted at 37° C. Cardiac action potentials were stimulated (2 ms, 1 nA) in current clamp mode at 37° C. (0.2 or 0.5 Hz). Recorded action potentials were analyzed using Clampfit 10.4 (Axon Instruments). Control recordings were obtained from cardiomyocytes without treatment.
Patch-Clamp Electrophysiology of the cardiomyocytes was done as described in Example 1.

LQTS1 cardiomyocytes = assay: Action potential recordings in LQTS1 cardiomyocytes; type: cell-based, human
Description: (§2) The Timothy syndrome and control iPSCs were differentiated into cardiomyocytes following a protocol reported previously (Song et al., 2015). The cardiomyocytes were dissociated into single cells for whole-cell patch-clamp recordings at day 31 and used for patch clamping between day 35 and 45. Whole-cell patch-clamp recordings of iPSC-derived cardiomyocytes were conducted using a MultiClap 700B patch-clamp amplifier (Molecular Devices) and an inverted microscope equipped with differential interface optics (Nikon, Ti-U). The glass pipettes were prepared using borosilicate glass (Sutter Instrument, BF150-110-10) using a micropipette puller (Sutter Instrument, Model P-97). Voltage-clamp measurements were conducted using an extracellular solution consisting of 5 mM BaCl2, 160 mM TEA and 10 mM HEPES (pH7.4 at 25° C.) and a pipette solution of 125 mM CsCl, 0.1 mM CaCl2, 10 mM EGTA, 1 mM MgCl2, 4 mM MgATP and 10 mM HEPES (pH 7.4 with CsOH at 25° C.). The protocol for voltage-clamp recordings was that cells were held at −90 mV and then depolarized to −10 mV for 400 ms at a rate of 0.1 Hz for the Ba^2+ current recordings; cells were held at −90 mV, stimulated with a 2-s family of pulses from −90 to +20 for the current-voltage relationship of the Ba^2+ currents. The recordings were conducted under room temperature. […] Recorded action potentials were analyzed using Clampfit 10.4 (Axon Instruments). […]

LQTS6 cardiomyocytes = assay: Paced action potential recordings in LQTS6 cardiomyocytes; type: cell-based, human; details: 5 μM, 2 hr; paced 0.5 Hz; M54T mutation in MiRP1
control cardiomyocytes [5] = assay: Calcium imaging of spontaneous calcium transients in control cardiomyocytes; type: cell-based, human; details: 5 μM, 30 min
Description: as §1

sodium channels = details: reported (Johannessen et al., 2009); cited from earlier work
Timothy syndrome mice = assay: Mouse electrocardiography, Timothy syndrome mouse model; type: in vivo; details: in drinking water
Description: A model mouse for Timothy Syndrome was generated by targeting the Rosa26 locus with a G406R mutant in the calcium channel Cacna1c gene (see FIG. 10A). The experimental design for inducing the expression of Timothy syndrome mutant with Dxm treatment (about 28 mg/kg) is shown in FIG. 10B.
(§3) Subcutaneous 4-lead electrocardiograms of isoflurane-anesthetized 12-week old mice were performed using emka ECG and recorded using iox 2.8.0.19. Recordings were conducted a day 4 and 11 after tamoxifen (Sigma-Aldrich, 50 μg/B.W.(g)/day/mouse, i.e., approximately 1 mg/day/mouse) was administrated at day 1-3. Dxm was resolved to drinking water. Total amount of taken dextromethorphan was estimated based on water consumption in each mouse (23-44 mg/kg). To obtain accurate amount of dextromethorphan administration in mice, the concentration of dextromethorphan in the plasma was measured and analyzed at Columbia University Biomarkers Core Laboratory. RR and QT intervals were measured manually using ecgAUTO v2.8.1.27, Excel and Prism 6/7 software.

hERG current IKr [6] = type: cell-based, human; details: 5 uM, 2 hr; E-4031-sensitive current
Description: (§4) The following pulse protocol was used: 5-s voltage clamp applied from 10 mV to 50 mV (Δ20 mV, holding at −40 mV, 0.1 Hz, at 25° C.). After recordings, the extracellular solution was switched to one containing 1 μM E-4031 (TOCRIS). E-4031-sensitive current was measured and analyzed as IKr current using Clampfit 10.4 (Axon Instruments).

[7] = Dxm concentration in the plasma of mice; type: in vivo, mouse; details: adult normal mice, Dxm in drinking water
Description: as §3

hERG current IKr [8] = molecular target: T1, hERG current IKr (Homo sapiens, UniProt Q12809); type: cell-based; details: 5 uM, 2 hr; E-4031-sensitive current
T1 construct: hERG current IKr in Timothy syndrome iPSC-derived cardiomyocytes; endogenous in cells; host or cells: Timothy syndrome iPSC-derived cardiomyocytes
T1 sequence (Q12809 whole entry): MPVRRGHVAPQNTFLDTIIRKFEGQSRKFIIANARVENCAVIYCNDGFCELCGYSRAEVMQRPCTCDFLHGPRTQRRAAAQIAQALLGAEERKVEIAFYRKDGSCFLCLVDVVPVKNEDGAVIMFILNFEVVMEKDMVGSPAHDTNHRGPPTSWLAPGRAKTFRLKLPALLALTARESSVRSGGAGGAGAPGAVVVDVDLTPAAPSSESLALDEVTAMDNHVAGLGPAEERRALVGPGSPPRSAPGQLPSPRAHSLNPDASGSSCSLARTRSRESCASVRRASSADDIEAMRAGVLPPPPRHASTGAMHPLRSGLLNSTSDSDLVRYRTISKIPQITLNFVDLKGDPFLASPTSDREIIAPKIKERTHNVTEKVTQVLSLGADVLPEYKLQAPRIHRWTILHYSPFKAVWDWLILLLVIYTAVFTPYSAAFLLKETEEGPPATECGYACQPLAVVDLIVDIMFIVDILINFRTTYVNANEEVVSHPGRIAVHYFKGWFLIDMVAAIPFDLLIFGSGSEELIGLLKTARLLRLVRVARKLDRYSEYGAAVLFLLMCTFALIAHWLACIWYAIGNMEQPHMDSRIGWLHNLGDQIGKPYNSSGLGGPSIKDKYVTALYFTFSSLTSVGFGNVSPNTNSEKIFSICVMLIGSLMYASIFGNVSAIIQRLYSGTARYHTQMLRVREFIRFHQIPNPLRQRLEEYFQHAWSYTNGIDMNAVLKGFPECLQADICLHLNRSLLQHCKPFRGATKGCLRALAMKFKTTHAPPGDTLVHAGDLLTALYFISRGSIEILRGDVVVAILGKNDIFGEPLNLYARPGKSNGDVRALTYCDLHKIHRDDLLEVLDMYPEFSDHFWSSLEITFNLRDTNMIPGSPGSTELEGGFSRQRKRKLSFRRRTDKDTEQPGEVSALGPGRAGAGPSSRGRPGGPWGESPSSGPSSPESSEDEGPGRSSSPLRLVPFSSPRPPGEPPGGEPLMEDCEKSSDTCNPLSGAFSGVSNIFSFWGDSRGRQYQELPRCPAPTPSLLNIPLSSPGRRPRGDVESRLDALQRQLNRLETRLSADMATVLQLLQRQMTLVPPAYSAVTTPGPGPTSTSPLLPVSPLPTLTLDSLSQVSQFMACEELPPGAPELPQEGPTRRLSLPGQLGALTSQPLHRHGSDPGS
Description: as §4

[9] = tested on: isogenic control (Ctrl) iPSC-derived cardiomyocytes; assay: Paced action potential recordings in isogenic control iPSC-derived cardiomyocytes; type: cell-based, human; details: 5 uM, 2 hr
Description: as §2

[10] = tested on: Timothy syndrome iPSC-derived cardiomyocytes; assay: GCaMP6f-based calcium imaging in Timothy syndrome iPSC-derived cardiomyocytes; type: cell-based, human; details: 5 uM, 2 hr
[11] = tested on: long QT syndrome type 2 iPSC-derived cardiomyocytes; assay: Action potential recordings in long QT syndrome type 2 iPSC-derived cardiomyocytes; type: cell-based, human; details: 5 uM, 2 hr
Description: as §2

control littermate mice = assay: Mouse electrocardiography, control littermate mice; type: in vivo; details: in drinking water
Description: as §3

Sigma-1R = Sigma-1R (Homo sapiens, UniProt Q99720); details: cited from earlier work
Sigma-1R, sequence (Q99720 whole entry, species assumed): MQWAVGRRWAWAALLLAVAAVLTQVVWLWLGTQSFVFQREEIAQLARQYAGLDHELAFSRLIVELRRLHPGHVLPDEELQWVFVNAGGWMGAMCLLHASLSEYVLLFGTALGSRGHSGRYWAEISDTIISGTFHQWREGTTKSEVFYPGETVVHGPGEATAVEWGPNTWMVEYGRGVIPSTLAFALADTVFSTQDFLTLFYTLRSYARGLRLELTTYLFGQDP

COCCCC/C(=N\OCCN)c1ccc(C(F)(F)F)cc1 [Fluvoxamine]
contraction irregularity [1]: significantly decreased | spontaneous beating rate [1]: increased | contraction irregularity, long-term repeated treatment [1]: reduced | spontaneous beating rate, long-term repeated treatment [1]: significantly enhanced | rhythmic contraction and cell survival [1]: enhanced | contraction rhythmicity of control cardiomyocytes (control cardiomyocytes [2]): did not significantly affect | spontaneous beating rate of control cardiomyocytes (control cardiomyocytes [2]): significantly enhanced | abnormal spontaneous calcium transients [3]: alleviated | spontaneous calcium transient duration [3]: significantly reduced | spontaneous calcium transient half decay time [3]: significantly reduced | paced action potential duration ([4]; 5 μM): reduced | prolonged paced action potentials (APD90) in LQTS1 cardiomyocytes (LQTS1 cardiomyocytes; 5 μM, 2 hr, paced 0.5 Hz, G269S mutation in KCNQ1): significantly reduced | prolonged paced action potentials (APD90) in LQTS6 cardiomyocytes (LQTS6 cardiomyocytes): significantly reduced | calcium transient duration in control cardiomyocytes (control cardiomyocytes [5]): did not significantly affect | calcium transient half decay time in control cardiomyocytes (control cardiomyocytes [5]): did not significantly affect | normal calcium transients in control cardiomyocytes (control cardiomyocytes [5]): did not significantly affect

COc1ccc(CNc2nc(NCc3ccc(OC)cc3)c3ncn(C4CCCCC4)c3n2)cc1 [Myoseverin-B]
effects on Timothy syndrome cardiomyocytes [1]: positive effects

CCCN(CCC)CCc1ccc(OC)c(OCCc2ccccc2)c1 [NE-100]
beneficial effects of Fluvoxamine under co-treatment with NE-100 ([1]; Fluvoxamine 5 μM + NE-100 5 μM, 2 hr): blocked

CC(C)CC(=O)Nc1[nH]nc2c1CN(C(=O)C1CCN(C)CC1)C2(C)C [PHA-793887]
effects on Timothy syndrome cardiomyocytes [1]: positive effects

O=C(OCCN1CCOCC1)C1(c2ccccc2)CCCCC1 [PRE-084]
contraction irregularity [1]: decreased | spontaneous beating rate [1]: significantly increased | contraction irregularity, long-term repeated treatment [1]: reduced | spontaneous beating rate, long-term repeated treatment [1]: significantly enhanced | rhythmic contraction and cell survival [1]: enhanced | contraction rhythmicity of control cardiomyocytes (control cardiomyocytes [2]): did not significantly affect | spontaneous beating rate of control cardiomyocytes (control cardiomyocytes [2]): significantly enhanced | abnormal spontaneous calcium transients [3]: alleviated | spontaneous calcium transient duration [3]: significantly reduced | spontaneous calcium transient half decay time [3]: significantly reduced | abnormal spontaneous action potentials ([4]; 5 μM): rescued | paced action potential duration ([4]; 5 μM): rescued | effects on sodium channels (sodium channels): little effects | calcium transient duration in control cardiomyocytes (control cardiomyocytes [5]): did not significantly affect | calcium transient half decay time in control cardiomyocytes (control cardiomyocytes [5]): did not significantly affect | normal calcium transients in control cardiomyocytes (control cardiomyocytes [5]): did not significantly affect

COc1ccc(CCN2CCN(CCCc3ccccc3)CC2)cc1OC [SA4503]
beating rate or contraction irregularity ([1]; 0.1 μM): no obvious improvement | contractions of Timothy syndrome cardiomyocytes ([1]; dose between 1 μM to 5 μM): stopped the contractions

COc1ccc2c(c1)[C@]13CCCC[C@@H]1[C@H](C2)N(C)CC3 [dextromethorphan]
QT intervals in Timothy syndrome mice (Timothy syndrome mice; approximately 28 mg/kg, day 4): significantly shortened | QT intervals in Timothy syndrome mice (Timothy syndrome mice; day 11): significantly shortened | IKr current in long QT syndrome type 2 iPSC-derived cardiomyocytes (hERG current IKr [6]): significantly increased | plasma concentration of Dxm [7]: 5 to 10 ng/mL | IKr current in Timothy syndrome iPSC-derived cardiomyocytes (hERG current IKr [8]): significantly increased | action potential duration (APD90) in Timothy syndrome iPSC-derived cardiomyocytes ([4]; 5 uM, paced): significantly shortened | action potential duration (APD90) in isogenic control cells [9]: not changed | cardiac transient duration [10]: significantly shortened | cardiac transient frequency [10]: significantly increased | action potential duration in long QT syndrome type 2 iPSC-derived cardiomyocytes [11]: significantly shortened | QT intervals in control littermate mice (control littermate mice): no significant effect | action potential duration in long QT syndrome type 1 iPSC-derived cardiomyocytes (LQTS1 cardiomyocytes; treated vs untreated): significantly shortened | Ki (Sigma-1R; read-out: Ki (Sigma-1R), known as Sigma-1R agonist): 0.15 µM

Fc1ccc([C@@H]2CCNC[C@H]2COc2ccc3c(c2)OCO3)cc1 [paroxetine]
effects on Timothy syndrome cardiomyocytes [1]: no beneficial effects | affinity for sigma 1 receptor (Sigma-1R): low affinity
